In US10071967B2, “N-cycloalkyl-N-{[2-(1-substitutedcycloalkyl)phenyl]methylene}-(thio)carboxamide derivatives” (BAYER CROPSCIENCE AKTIENGESELLSCHAFT, priority 2013, dated 2018):

Test: log P by HPLC on a reversed-phase column (C 18), EEC Directive 79/831 Annex V.A8
Format: physicochemical
Conditions: HPLC reversed-phase C 18, 40° C., 0.1% aqueous formic acid and acetonitrile, gradient 10% to 90% acetonitrile
Description: In table 1, the log P values were determined in accordance with EEC Directive 79/831 Annex V.A8 by HPLC (High Performance Liquid Chromatography) on a reversed-phase column (C 18), using the method described below: Temperature: 40° C.; Mobile phases: 0.1% aqueous formic acid and acetonitrile; linear gradient from 10% acetonitrile to 90% acetonitrile. Calibration was carried out using unbranched alkan-2-ones (comprising 3 to 16 carbon atoms) with known log P values (determination of the log P values by the retention times using linear interpolation between two successive alkanones). lambda-max-values were determined using UV-spectra from 200 nm to 400 nm and the peak values of the chromatographic signals.
`COCC1(c2ccc(C)cc2CN(C(=O)c2cc(C)oc2C)C2CC2)CC1` [Example 1.155] gave a logP of 4.03.
Work on `Cc1nn(C)cc1C(=O)N(Cc1cc(Cl)c(Cl)cc1C1(C)CC1)C1CC1` [Example 1.160] yielded a logP of 3.81.
In the case of `COCC1(c2ccc(C)cc2CN(C(=O)c2c(C)nn(C)c2Cl)C2CC2)CC1` [Example 1.158], the logP is reported as 3.19.
For `Cc1nn(C)c(F)c1C(=O)N(Cc1cc(Cl)c(Cl)cc1C1(C)CC1)C1CC1` [Example 1.162], the logP was 4.35.
`Cn1cc(C(=O)N(Cc2cc(F)ccc2C2(C)CC2(Cl)Cl)C2CC2)c(C(F)F)n1` (centres unmarked) [Example 1.153] showed a logP of 3.68.

Same assay, conditions: HPLC, reversed-phase column (C 18), 40° C.; 0.1% aqueous formic acid and acetonitrile, linear gradient 10% to 90% acetonitrile
`Cn1cc(C(=S)N(Cc2cccc(F)c2C2(C)CC2)C2CC2)c(C(F)F)n1` [Example 1.006] showed a logP of 4.04.
Work on `CCC1(c2ccc(C(F)(F)F)cc2CN(C(=O)c2cn(C)nc2C(F)F)C2CC2)CC1` [Example 1.085] yielded a logP of 4.27.
For `CCOC1(c2ccc(C)cc2CN(C(=O)c2cn(C)nc2C(F)F)C2CC2)CC1` [Example 1.128], the logP was 3.60.
With `Cc1ccc(C2(C3CC3)CC2)c(CN(C(=O)c2cc(C)oc2C)C2CC2)c1` [Example 1.109] the logP was 5.05.
Compound `CCCC1(c2cc(Cl)ccc2CN(C(=O)c2cc(C)oc2C(F)F)C2CC2)CC1` [Example 1.111] has a logP of 5.78.
Work on `CCC1(c2cc(Cl)ccc2CN(C(=O)c2c(C)nn(C)c2F)C2CC2)CC1` [Example 1.069] yielded a logP of 4.25.
Work on `Cc1ccc(C2(C(C)C)CC2)c(CN(C(=O)c2nn(C)cc2C(F)F)C2CC2)c1` [Example 1.117] yielded a logP of 4.90.
For `CCC1(c2ccc(C)cc2CN(C(=O)c2cc(C)oc2C(F)F)C2CC2)CC1` [Example 1.095], the logP was 5.22.
Work on `CCOC1(c2ccc(C)cc2CN(C(=O)c2c(C)nn(C)c2Cl)C2CC2)CC1` [Example 1.131] yielded a logP of 3.71.
Compound `CCC1(c2ccc(C)cc2CN(C(=O)c2c(C)nn(C)c2Cl)C2CC2)CC1` [Example 1.096] has a logP of 4.36.
Work on `Cc1nn(C)c(F)c1C(=O)N(Cc1ccc(F)cc1C1(C)CC1)C1CC1` [Example 1.014] yielded a logP of 3.46.
`Cn1cc(C(=O)N(Cc2ccc(F)cc2C2(C(F)F)CC2)C2CC2)c(C(F)F)n1` [Example 1.133] showed a logP of 3.09.
`Cn1cc(C(=O)N(Cc2ccccc2C2(C(F)F)CC2)C2CC2)c(C(F)F)n1` [Example 1.132] showed a logP of 3.00.
Compound `Cc1ccc(C2(C(C)C)CC2)c(CN(C(=O)c2c(C)nn(C)c2Cl)C2CC2)c1` [Example 1.119] has a logP of 4.80.
`Cc1ccc(C2(C(C)C)CC2)c(CN(C(=O)c2nn(C)nc2C(F)F)C2CC2)c1` [Example 1.121] showed a logP of 5.08.
In the case of `Cc1ccc(C2(C)CC2)c(CN(C(=O)c2c(C(F)(F)F)nn(C)c2Cl)C2CC2)c1` [Example 1.041], the logP is reported as 4.82.
Work on `CCC1(c2cc(C)c(F)cc2CN(C(=O)c2nn(C)nc2C(F)F)C2CC2)CC1` [Example 1.079] yielded a logP of 4.85.
Compound `Cc1ccc(C2(C)CC2)c(CN(C(=O)c2c(C(F)F)nn(C(C)(C)C)c2C(F)F)C2CC2)c1` [Example 1.039] has a logP of 5.35.
Work on `Cc1nn(C)c(Cl)c1C(=O)N(Cc1cc(Br)ccc1C1(C)CC1)C1CC1` [Example 1.023] yielded a logP of 4.24.
Compound `CCC1(c2ccc(Cl)cc2CN(C(=O)c2c(OC(F)F)nn(C)c2Cl)C2CC2)CC1` [Example 1.090] has a logP of 5.03.
In the case of `CCC1(c2cc(Cl)ccc2CN(C(=O)c2cn(C)nc2C(F)F)C2CC2)CC1` [Example 1.070], the logP is reported as 4.25.
`CCC1(c2cc(C(F)(F)F)ccc2CN(C(=O)c2cn(C)nc2C(F)F)C2CC2)CC1` [Example 1.077] gave a logP of 4.36.
Compound `Cc1ccc(C2(C)CC2)c(CN(C(=O)c2nc(C)oc2C(F)F)C2CC2)c1` [Example 1.044] has a logP of 4.56.
In the case of `C#CC1(c2ccc(C)cc2CN(C(=S)c2c(C)nn(C)c2F)C2CC2)CC1` [Example 1.066], the logP is reported as 4.54.
In the case of `Cc1ccc(C2(C(C)C)CC2)c(CN(C(=S)c2cn(C)nc2C(F)F)C2CC2)c1` [Example 1.125], the logP is reported as 4.98.
`CCC1(c2cc(C)c(F)cc2CN(C(=O)c2cc(C)oc2C)C2CC2)CC1` [Example 1.083] showed a logP of 5.34.
In the case of `Cc1ccc(C2(C)CC2)c(CN(C(=O)c2sccc2I)C2CC2)c1` [Example 1.034], the logP is reported as 5.14.
`Cc1ccc(C2(C(C)C)CC2)c(CN(C(=O)c2c(C)nn(C)c2F)C2CC2)c1` [Example 1.122] showed a logP of 4.54.
`CCC1(c2ccc(C)cc2CN(C(=O)c2c(C)nn(C)c2F)C2CC2)CC1` [Example 1.093] showed a logP of 4.14.
For `Cc1ccc(C2(Cl)CC2)c(CN(C(=O)c2c(C)nn(C)c2F)C2CC2)c1` [Example 1.106], the logP was 3.42.
Compound `Cc1ccc(C2(C)CC2)c(CN(C(=O)c2c(C)nn(C)c2F)C2CC2)c1` [Example 1.040] has a logP of 3.73.
Work on `Cc1nn(C)cc1C(=O)N(Cc1cc(Br)ccc1C1(C)CC1)C1CC1` [Example 1.026] yielded a logP of 3.44.
`CCC1(c2ccc(C)cc2CN(C(=O)c2c(OC(F)F)nn(C)c2F)C2CC2)CC1` [Example 1.098] gave a logP of 4.72.
Compound `Cn1nc(C(=O)N(Cc2ccc(Cl)cc2C2(C)CC2)C2CC2)c(C(F)F)n1` [Example 1.009] has a logP of 4.54.
Compound `CCC1(c2cc(C)c(F)cc2CN(C(=O)c2c(C)nn(C)c2Cl)C2CC2)CC1` [Example 1.078] has a logP of 4.49.
`Cc1cc(C(=O)N(Cc2ccc(Cl)cc2C2(C)CC2)C2CC2)c(C(F)F)o1` [Example 1.008] showed a logP of 4.98.
In the case of `Cn1nc(C(=O)N(Cc2ccc(-c3ccccc3)cc2C2(C)CC2)C2CC2)c(C(F)F)n1` [Example 1.022], the logP is reported as 5.00.
Compound `Cc1ccc(C2(C(C)C)CC2)c(CN(C(=O)c2cn(C)nc2C)C2CC2)c1` [Example 1.124] has a logP of 3.96.
`CCC1(c2ccc(C)cc2CN(C(=O)c2cc(C)oc2C)C2CC2)CC1` [Example 1.097] gave a logP of 5.14.
Work on `Cc1cc(C(=O)N(Cc2cccc(Cl)c2C2(C)CC2)C2CC2)c(C)o1` [Example 1.002] yielded a logP of 4.92.
`C#CC1(c2ccc(C)cc2CN(C(=O)c2c(C)nn(C)c2F)C2CC2)CC1` [Example 1.065] gave a logP of 3.21.
`CCC1(c2cc(C)c(F)cc2CN(C(=O)c2c(C)nn(C)c2F)C2CC2)CC1` [Example 1.082] gave a logP of 4.26.
`Cc1ccc(C2(C)CC2)c(CN(C(=O)c2c(C(F)F)nn(C)c2C(F)F)C2CC2)c1` [Example 1.035] showed a logP of 4.36.
With `Cc1ccc(C2(C(C)C)CC2)c(CN(C(=O)c2cn(C)nc2C(F)F)C2CC2)c1` [Example 1.123] the logP was 4.49.
`CCC1(c2ccc(Cl)cc2CN(C(=O)c2cn(C)nc2C(F)F)C2CC2)CC1` [Example 1.086] gave a logP of 4.18.
For `CCCC1(c2ccc(C)cc2CN(C(=O)c2cc(C)oc2C)C2CC2)CC1` [Example 1.115], the logP was 5.62.
`CCOC1(c2ccc(C)cc2CN(C(=O)c2nn(C)nc2C(F)F)C2CC2)CC1` [Example 1.126] showed a logP of 4.21.
For `CCC1(c2ccc(C)cc2CN(C(=O)c2c(OC(F)F)nn(C)c2C(F)(F)F)C2CC2)CC1` [Example 1.100], the logP was 5.35.
`CCC1(c2cc(C)c(F)cc2CN(C(=O)c2cc(C)oc2C(F)F)C2CC2)CC1` [Example 1.080] showed a logP of 5.25.
With `Cc1ccc(C2(C)CC2)c(CN(C(=O)c2c(C)nn(C)c2Cl)C2CC2)c1` [Example 1.048] the logP was 3.96.
In the case of `Cc1ccc(C2(C)CC2)c(CN(C(=O)c2c(C(F)F)nn(C)c2C)C2CC2)c1` [Example 1.036], the logP is reported as 3.99.
`Cc1nn(C)c(F)c1C(=O)N(Cc1cc(Cl)ccc1C1(C(F)F)CC1)C1CC1` [Example 1.136] gave a logP of 3.33.
Compound `CCC1(c2ccc(C(F)(F)F)cc2CN(C(=O)c2c(C)nn(C)c2F)C2CC2)CC1` [Example 1.084] has a logP of 4.34.
With `CCCC1(c2ccc(C)cc2CN(C(=O)c2cn(C)nc2C(F)F)C2CC2)CC1` [Example 1.114] the logP was 4.59.
Compound `Cc1ccc(C2(C3CC3)CC2)c(CN(C(=O)c2c(C)nn(C)c2F)C2CC2)c1` [Example 1.108] has a logP of 4.11.
Work on `Cc1ccc(C2(C)CC2)c(CN(C(=O)c2cn(C)nc2C(F)(F)F)C2CC2)c1` [Example 1.037] yielded a logP of 4.16.
With `CCC1(c2cc(C)ccc2CN(C(=O)c2cn(C)nc2C(F)F)C2CC2)CC1` [Example 1.074] the logP was 4.16.
In the case of `Cn1nc(C(=S)N(Cc2ccc(Cl)cc2C2(C)CC2)C2CC2)c(C(F)F)n1` [Example 1.011], the logP is reported as 5.11.
`CCC1(c2ccc(C)cc2CN(C(=O)c2cn(C)nc2C(F)F)C2CC2)CC1` [Example 1.092] gave a logP of 4.19.
In the case of `Cc1ccc(C2(C(F)F)CC2)c(CN(C(=O)c2cn(C)nc2C(F)F)C2CC2)c1` [Example 1.138], the logP is reported as 3.29.
Work on `C#CC1(c2ccc(Cl)cc2CN(C(=O)c2cn(C)nc2C(F)F)C2CC2)CC1` [Example 1.063] yielded a logP of 3.39.
With `Cn1cc(C(=O)N(Cc2cc(F)ccc2C2(C(F)(F)F)CC2)C2CC2)c(C(F)F)n1` [Example 1.150] the logP was 3.48.
Work on `Cc1cc(C(=O)N(Cc2ccc(-c3ccccc3)cc2C2(C)CC2)C2CC2)c(C)o1` [Example 1.021] yielded a logP of 5.48.
With `Cc1cc(C(=O)N(Cc2cc(Cl)ccc2C2(C(F)(F)F)CC2)C2CC2)c(C)o1` [Example 1.148] the logP was 4.82.
In the case of `CCC1(c2cccc(F)c2CN(C(=O)c2c(C)nn(C)c2F)C2CC2)CC1` [Example 1.103], the logP is reported as 3.63.
With `Cc1ccc(C2(C(C)C)CC2)c(CN(C(=O)c2cc(C)oc2C)C2CC2)c1` [Example 1.118] the logP was 5.65.

Same assay, conditions: Table 2, compounds of formula (I); HPLC C 18, 40° C., 0.1% aqueous formic acid and acetonitrile
With `Cn1cc(C(=O)N(Cc2cccc3c2C2(CC3)CC2)C2CC2)c(C(F)F)n1` [Ia.01] the logP was 3.51.
Work on `Cn1cc(C(=O)N(Cc2cccc3c2C2(CCC3)CC2)C2CC2)c(C(F)F)n1` [Ia.02] yielded a logP of 3.73.

Same assay, conditions: Table 4, compounds of formula (IV); HPLC C 18, 40° C., 0.1% aqueous formic acid and acetonitrile
With “3-fluoro-2-(1-methylcyclopropyl)benzaldehyde [IV.14]” the logP was 3.13.
